Results taken from patent publication US20120283303A1, “USE OF N-AMINOIMIDAZOLE CYTOPROTECTIVE COMPOUNDS FOR TREATING CELL DEATH AND/OR GSK-3 MEDIATED DISEASES” (K.U.LEUVEN RESEARCH AND DEVELOPMENT, priority 2006, published 2012).

Assays:
[1] = test system: Peripheral blood mononuclear cells (PBMCs); test: PBMC survival (viable cell count, trypan blue exclusion); format: cell-based, human
Protocol: Peripheral blood mononuclear cells (PBMCs) from healthy donors were isolated by density centrifugation (Lymphoprep; Nycomed Pharma, AS Diagnostics, Oslo, Norway). For the “non-stimulated” conditions (NS) the cells were cultivated at a density of 1,750,000 cells per ml in RPMI-1640 supplemented with 2 mM L-glutamine, 15% FCS and 0.1% NaHCO3 for 3 days. […] At day 0 of the experiment, the NS and activated cells (PHA-stimulated blasts) were washed with PBS and were pelleted by centrifugation. […] The number of viable cells was counted based on the trypan blue exclusion method. The evolution of the number of cells was followed over a period of approximately 2 weeks.

p300 (H4 peptide) = biological target: T1, p300 (H4 peptide) (Homo sapiens, UniProt Q09472); test: Radiometric enzyme activity assay, p300 (H4 peptide); format: biochemical; details: 5 μg/ml NR-818, 10 μM ATP
T1 construct: purchased Upstate Biotechnology
Protocol: (§1) GSK-3 were assayed for their ability to phosphorylate the appropriate peptide/protein substrate in the presence of 5 μg/ml NR-818 and 10 μM ATP. Using the direct radiometric approach, kinase activities were determined and expressed as % activity compared to the untreated control (Upstate Biotechnology, Lake Placid, N.Y.). Activities are given as the mean of duplicate determinations relative to control incubations in which the inhibitor was substituted with DMSO. In the following table 1 providing results for NR818, the following abbreviations are used: • CDK, cyclin-dependent kinase; • CK, casein kinase; • eEF-2K, eukaryotic elongation factor-2 kinase; • JNK, c-Jun N-terminal kinase; • MAPK, mitogen-activated protein kinase; • PKC, protein kinase C; and • PI 3-kinase, phosphatidylinositol 3-kinase.

GSK-3β = biological target: T2, GSK-3β (Homo sapiens, UniProt P49841); test: Radiometric kinase activity assay; format: biochemical; details: GSK-3β; 5 μg/ml NR-818, 10 μM ATP
T2 construct: purchased Upstate Biotechnology
Protocol: as §1
(§2) By using this experimental set-up, the inhibiting activity of NR953 on GSK-3 is also tested.

GSK-3α = biological target: T3, GSK-3α (Homo sapiens, UniProt P49840); test: Radiometric kinase activity assay; format: biochemical; details: GSK-3α; 5 μg/ml NR-818, 10 μM ATP
T3 construct: purchased Upstate Biotechnology
Protocol: as §1, §2

[2] = Diabetic mouse glucose tolerance test; format: in vivo, mice; details: subcutaneously, 30 mg/kg
Description: NR818 is formulated and tested in the diabetic mouse glucose tolerance test as described in example 269 of U.S. Pat. No. 6,489,344.

CDK2/cyclinE = biological target: T4, CDK2/cyclinE (Homo sapiens, UniProt P24941); test: Radiometric kinase activity assay; format: biochemical; details: 5 μg/ml NR-818, 10 μM ATP
T4 construct: purchased Upstate Biotechnology
Protocol: as §1

PI 3-kinaseβ = biological target: T5, PI 3-kinaseβ (Homo sapiens, UniProt P42338); test: Radiometric kinase activity assay; format: biochemical; details: 5 μg/ml NR-818, 10 μM ATP
T5 construct: purchased Upstate Biotechnology
Protocol: as §1

JNK1α1 = biological target: T6, JNK1α1 (Homo sapiens, UniProt P45983); test: Radiometric kinase activity assay; format: biochemical; details: 5 μg/ml NR-818, 10 μM ATP
T6 construct: purchased Upstate Biotechnology
Protocol: as §1

PI 3-kinaseδ = biological target: T7, PI 3-kinaseδ (Homo sapiens, UniProt O00329); test: Radiometric kinase activity assay; format: biochemical; details: 5 μg/ml NR-818, 10 μM ATP
T7 construct: purchased Upstate Biotechnology, Lake Placid, N.Y
Protocol: as §1

CDK9/cyclinT1 = biological target: T8, CDK9/cyclinT1 (Homo sapiens, UniProt P50750); test: Radiometric kinase activity assay; format: biochemical; details: 5 μg/ml NR-818, 10 μM ATP
T8 construct: purchased Upstate Biotechnology
Protocol: as §1

CDK6/cyclinD3 = biological target: T9, CDK6/cyclinD3 (Homo sapiens, UniProt Q00534); test: Radiometric kinase activity assay; format: biochemical; details: 5 μg/ml NR-818, 10 μM ATP
T9 construct: purchased Upstate Biotechnology
Protocol: as §1

MAPK1 = biological target: T10, MAPK1 (Homo sapiens, UniProt P27361); test: Radiometric kinase activity assay; format: biochemical; details: 5 μg/ml NR-818, 10 μM ATP
T10 construct: purchased Upstate Biotechnology
Protocol: as §1

CDK7/cyclinH = biological target: T11, CDK7/cyclinH (Homo sapiens, UniProt P50613); test: Radiometric kinase activity assay; format: biochemical; details: 5 μg/ml NR-818, 10 μM ATP
T11 construct: purchased Upstate Biotechnology
Protocol: as §1

MAPK2 = biological target: T12, MAPK2 (Homo sapiens, UniProt P28482); test: Radiometric kinase activity assay; format: biochemical; details: 5 μg/ml NR-818, 10 μM ATP
T12 construct: purchased Upstate Biotechnology
Protocol: as §1

CDK1/cyclinB = biological target: T13, CDK1/cyclinB (Homo sapiens, UniProt P06493); test: Radiometric kinase activity assay; format: biochemical; details: 5 μg/ml NR-818, 10 μM ATP
T13 construct: purchased Upstate Biotechnology
Protocol: as §1

JNK2α2 = biological target: T14, JNK2α2 (Homo sapiens, UniProt P45984); test: Radiometric kinase activity assay; format: biochemical; details: 5 μg/ml NR-818, 10 μM ATP
T14 construct: purchased Upstate Biotechnology
Protocol: as §1

PKCζ = biological target: T15, PKCζ (Homo sapiens, UniProt Q05513); test: Radiometric kinase activity assay; format: biochemical; details: 5 μg/ml NR-818, 10 μM ATP
T15 construct: purchased Upstate Biotechnology
Protocol: as §1

CK1 = test: Radiometric kinase activity assay; format: biochemical; details: 5 μg/ml NR-818, 10 μM ATP
Protocol: as §1

CDK5/p35 = biological target: T16, CDK5/p35 (Homo sapiens, UniProt Q00535); test: Radiometric kinase activity assay; format: biochemical; details: 5 μg/ml NR-818, 10 μM ATP
T16 construct: purchased Upstate Biotechnology
Protocol: as §1

CDK5/p25 = biological target: T17, CDK5/p25 (Homo sapiens, UniProt Q00535); test: Radiometric kinase activity assay; format: biochemical; details: 5 μg/ml NR-818, 10 μM ATP
T17 construct: purchased Upstate Biotechnology
Protocol: as §1

eEF-2K = biological target: T18, eEF-2K (Homo sapiens, UniProt O00418); test: Radiometric kinase activity assay; format: biochemical; details: 5 μg/ml NR-818, 10 μM ATP
T18 construct: purchased Upstate Biotechnology
Protocol: as §1

CDK3/cyclinE = biological target: T19, CDK3/cyclinE (Homo sapiens, UniProt Q00526); test: Radiometric kinase activity assay; format: biochemical; details: 5 μg/ml NR-818, 10 μM ATP
T19 construct: purchased Upstate Biotechnology
Protocol: as §1

CK2 = biological target: T20, CK2 (Homo sapiens, UniProt P68400); test: Radiometric kinase activity assay; format: biochemical; details: 5 μg/ml NR-818, 10 μM ATP
T20 construct: purchased Upstate Biotechnology
Protocol: as §1

CDK2/cyclinA = biological target: T21, CDK2/cyclinA (Homo sapiens, UniProt P24941); test: Radiometric kinase activity assay; format: biochemical; details: 5 μg/ml NR-818, 10 μM ATP
T21 construct: purchased Upstate Biotechnology
Protocol: as §1

PI 3-kinaseγ = biological target: T22, PI 3-kinaseγ (Homo sapiens, UniProt P48736); test: Radiometric kinase activity assay; format: biochemical; details: 5 μg/ml NR-818, 10 μM ATP
T22 construct: purchased Upstate Biotechnology
Protocol: as §1

T18 sequence (O00418 whole entry): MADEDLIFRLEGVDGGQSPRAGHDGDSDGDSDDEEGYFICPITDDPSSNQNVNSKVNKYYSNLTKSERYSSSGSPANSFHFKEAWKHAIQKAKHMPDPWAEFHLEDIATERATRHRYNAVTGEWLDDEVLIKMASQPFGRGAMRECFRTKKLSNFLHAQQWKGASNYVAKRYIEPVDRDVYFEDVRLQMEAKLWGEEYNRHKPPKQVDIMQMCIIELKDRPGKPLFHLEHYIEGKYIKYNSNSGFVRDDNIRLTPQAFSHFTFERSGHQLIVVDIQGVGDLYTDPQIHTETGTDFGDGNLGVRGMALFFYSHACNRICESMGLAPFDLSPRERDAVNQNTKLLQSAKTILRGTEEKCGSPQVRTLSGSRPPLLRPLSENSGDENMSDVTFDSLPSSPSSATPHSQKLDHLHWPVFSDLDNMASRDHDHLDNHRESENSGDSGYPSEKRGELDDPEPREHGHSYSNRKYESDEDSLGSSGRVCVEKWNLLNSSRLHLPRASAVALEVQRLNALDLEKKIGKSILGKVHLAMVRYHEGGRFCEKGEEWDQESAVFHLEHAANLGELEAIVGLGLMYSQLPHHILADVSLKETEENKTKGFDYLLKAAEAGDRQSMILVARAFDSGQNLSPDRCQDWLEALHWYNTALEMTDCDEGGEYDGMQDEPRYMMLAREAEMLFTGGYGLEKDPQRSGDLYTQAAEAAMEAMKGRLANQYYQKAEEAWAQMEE
T3 sequence (P49840 whole entry): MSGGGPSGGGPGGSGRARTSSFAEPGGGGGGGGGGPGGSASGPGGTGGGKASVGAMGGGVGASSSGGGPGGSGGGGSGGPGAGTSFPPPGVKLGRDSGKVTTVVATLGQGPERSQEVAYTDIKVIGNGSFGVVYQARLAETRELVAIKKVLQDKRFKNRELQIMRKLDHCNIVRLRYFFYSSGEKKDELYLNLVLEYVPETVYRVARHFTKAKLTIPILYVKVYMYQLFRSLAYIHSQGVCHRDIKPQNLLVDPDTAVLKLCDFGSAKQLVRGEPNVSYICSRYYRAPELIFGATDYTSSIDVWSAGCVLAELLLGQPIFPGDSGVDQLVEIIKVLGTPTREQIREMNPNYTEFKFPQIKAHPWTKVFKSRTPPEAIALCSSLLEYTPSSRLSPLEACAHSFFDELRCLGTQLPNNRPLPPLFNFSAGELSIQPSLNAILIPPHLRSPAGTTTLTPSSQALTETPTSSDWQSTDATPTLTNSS
T20 sequence (P68400 whole entry): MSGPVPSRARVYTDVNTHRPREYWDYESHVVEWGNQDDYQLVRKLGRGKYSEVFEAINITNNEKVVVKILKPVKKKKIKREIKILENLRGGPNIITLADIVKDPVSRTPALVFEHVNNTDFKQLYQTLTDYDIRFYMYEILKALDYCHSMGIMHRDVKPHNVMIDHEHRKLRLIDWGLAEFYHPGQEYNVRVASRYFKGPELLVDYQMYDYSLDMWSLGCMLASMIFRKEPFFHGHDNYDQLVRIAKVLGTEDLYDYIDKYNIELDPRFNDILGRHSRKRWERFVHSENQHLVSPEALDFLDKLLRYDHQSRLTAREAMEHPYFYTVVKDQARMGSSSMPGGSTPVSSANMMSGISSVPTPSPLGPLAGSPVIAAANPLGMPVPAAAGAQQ
T20 sequence (P67870 whole entry partner): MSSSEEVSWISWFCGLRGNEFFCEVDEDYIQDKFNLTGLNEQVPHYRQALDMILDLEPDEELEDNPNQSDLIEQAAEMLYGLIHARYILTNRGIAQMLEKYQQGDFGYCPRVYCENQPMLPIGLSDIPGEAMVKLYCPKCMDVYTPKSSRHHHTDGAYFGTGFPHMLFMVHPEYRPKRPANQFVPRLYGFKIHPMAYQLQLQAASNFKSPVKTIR
T10 sequence (P27361 whole entry): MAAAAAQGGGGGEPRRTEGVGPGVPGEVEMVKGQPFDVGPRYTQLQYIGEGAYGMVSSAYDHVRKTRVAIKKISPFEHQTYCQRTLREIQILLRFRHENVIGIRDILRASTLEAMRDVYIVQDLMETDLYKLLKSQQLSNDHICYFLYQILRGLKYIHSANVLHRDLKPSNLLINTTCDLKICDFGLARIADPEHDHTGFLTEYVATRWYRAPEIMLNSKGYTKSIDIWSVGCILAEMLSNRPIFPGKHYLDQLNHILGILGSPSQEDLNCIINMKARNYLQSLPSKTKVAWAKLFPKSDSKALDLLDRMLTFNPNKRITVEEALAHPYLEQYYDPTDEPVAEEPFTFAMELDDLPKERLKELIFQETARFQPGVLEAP
T8 sequence (P50750 whole entry): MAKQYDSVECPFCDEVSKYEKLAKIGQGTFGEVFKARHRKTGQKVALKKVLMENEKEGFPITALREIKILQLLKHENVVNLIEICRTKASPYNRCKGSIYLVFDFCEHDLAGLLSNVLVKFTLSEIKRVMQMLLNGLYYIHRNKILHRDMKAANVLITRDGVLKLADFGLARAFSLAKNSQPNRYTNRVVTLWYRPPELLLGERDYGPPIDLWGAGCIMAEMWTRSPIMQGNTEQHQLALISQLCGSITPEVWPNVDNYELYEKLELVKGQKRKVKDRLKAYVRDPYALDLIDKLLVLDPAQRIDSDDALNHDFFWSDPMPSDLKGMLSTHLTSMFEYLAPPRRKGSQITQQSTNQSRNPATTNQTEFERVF
T8 sequence (O60563 whole entry partner): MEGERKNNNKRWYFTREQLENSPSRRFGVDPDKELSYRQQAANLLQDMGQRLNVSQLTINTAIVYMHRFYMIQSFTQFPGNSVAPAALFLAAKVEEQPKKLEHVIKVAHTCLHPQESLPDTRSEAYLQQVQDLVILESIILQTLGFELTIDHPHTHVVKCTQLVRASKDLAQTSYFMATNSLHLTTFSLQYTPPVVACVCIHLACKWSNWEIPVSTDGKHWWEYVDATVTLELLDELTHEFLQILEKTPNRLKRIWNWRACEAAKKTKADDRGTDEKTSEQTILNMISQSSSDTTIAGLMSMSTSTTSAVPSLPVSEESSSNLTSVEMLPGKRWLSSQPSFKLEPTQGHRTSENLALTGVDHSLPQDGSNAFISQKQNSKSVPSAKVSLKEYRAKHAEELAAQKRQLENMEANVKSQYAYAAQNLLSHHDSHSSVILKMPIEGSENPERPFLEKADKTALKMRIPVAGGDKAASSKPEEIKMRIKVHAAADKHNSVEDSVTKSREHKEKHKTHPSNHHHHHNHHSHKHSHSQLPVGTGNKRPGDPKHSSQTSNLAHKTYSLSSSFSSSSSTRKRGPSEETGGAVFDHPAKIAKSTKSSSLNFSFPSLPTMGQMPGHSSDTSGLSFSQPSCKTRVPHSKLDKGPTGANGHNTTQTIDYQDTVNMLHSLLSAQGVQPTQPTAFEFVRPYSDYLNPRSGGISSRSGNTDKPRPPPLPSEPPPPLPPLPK
T9 sequence (Q00534 whole entry): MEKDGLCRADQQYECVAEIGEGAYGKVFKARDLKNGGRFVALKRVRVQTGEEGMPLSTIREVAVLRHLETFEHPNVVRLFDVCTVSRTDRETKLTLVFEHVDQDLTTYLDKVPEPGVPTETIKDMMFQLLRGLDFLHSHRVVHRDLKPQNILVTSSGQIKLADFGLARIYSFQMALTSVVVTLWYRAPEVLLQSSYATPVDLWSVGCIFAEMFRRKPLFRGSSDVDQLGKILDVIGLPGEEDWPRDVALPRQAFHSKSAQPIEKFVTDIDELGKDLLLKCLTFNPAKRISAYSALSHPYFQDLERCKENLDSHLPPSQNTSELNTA
T9 sequence (P30281 whole entry partner): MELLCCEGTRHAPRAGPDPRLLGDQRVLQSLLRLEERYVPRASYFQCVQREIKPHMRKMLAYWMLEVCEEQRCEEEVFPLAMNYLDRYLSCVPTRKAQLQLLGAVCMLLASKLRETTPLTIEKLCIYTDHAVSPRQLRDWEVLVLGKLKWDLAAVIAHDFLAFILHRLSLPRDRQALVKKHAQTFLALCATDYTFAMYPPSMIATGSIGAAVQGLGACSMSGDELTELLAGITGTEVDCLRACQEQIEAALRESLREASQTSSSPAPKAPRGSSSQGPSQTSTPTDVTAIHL
T14 sequence (P45984 whole entry): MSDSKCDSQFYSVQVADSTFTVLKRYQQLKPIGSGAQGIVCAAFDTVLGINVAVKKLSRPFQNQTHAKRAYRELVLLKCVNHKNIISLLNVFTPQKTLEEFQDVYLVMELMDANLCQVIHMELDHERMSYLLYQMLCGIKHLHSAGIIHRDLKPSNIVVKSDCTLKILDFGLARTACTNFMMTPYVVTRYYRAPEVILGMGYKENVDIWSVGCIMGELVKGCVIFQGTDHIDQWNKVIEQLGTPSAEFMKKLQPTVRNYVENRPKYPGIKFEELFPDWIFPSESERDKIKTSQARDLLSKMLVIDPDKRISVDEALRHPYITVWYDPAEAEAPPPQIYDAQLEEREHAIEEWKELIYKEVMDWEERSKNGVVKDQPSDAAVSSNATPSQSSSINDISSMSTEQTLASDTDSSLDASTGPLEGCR
T17 sequence (Q00535 whole entry): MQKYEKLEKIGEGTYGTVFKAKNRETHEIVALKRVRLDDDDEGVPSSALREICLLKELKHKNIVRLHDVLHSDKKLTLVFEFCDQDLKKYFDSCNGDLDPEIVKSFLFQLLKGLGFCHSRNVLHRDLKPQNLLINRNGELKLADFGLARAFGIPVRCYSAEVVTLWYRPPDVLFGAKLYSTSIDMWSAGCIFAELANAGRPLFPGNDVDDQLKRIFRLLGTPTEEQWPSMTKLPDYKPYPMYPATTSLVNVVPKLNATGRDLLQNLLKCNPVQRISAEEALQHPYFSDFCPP
T17 sequence (Q15078 99-307 partner limits assumed): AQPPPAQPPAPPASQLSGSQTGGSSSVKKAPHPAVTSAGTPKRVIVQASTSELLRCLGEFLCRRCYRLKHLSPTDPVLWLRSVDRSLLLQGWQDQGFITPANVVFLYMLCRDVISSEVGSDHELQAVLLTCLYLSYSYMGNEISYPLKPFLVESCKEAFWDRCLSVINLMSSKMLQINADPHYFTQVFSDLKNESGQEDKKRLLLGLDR

## Cc1nc(S)n(Nc2cccc3ccccc23)c1-c1ccccc1 [HER/NR818, 4-Methyl-1-(naphthalen-1-ylamino)-5-phenyl-1,3-dihydro-imidazole-2-thione]
[1]; IL-2 10 U/ml plus NAIM (NR818 2.5 μg/ml), stimulated and non stimulated cells, versus IL-2 only
  PBMC cell count, NAIM combined with IL-2: enhanced
[1]; NAIM alone, compared to control conditions
  PBMC cell viability, NAIM as such: did not affect the cell viability
p300 (H4 peptide)
  Activity (% of control): 100 % of control
GSK-3β
  Activity (% of control): 65 % of control
GSK-3α
  Activity (% of control): 70 % of control
[2]; diabetic mice
  basal hyperglycemia just prior to the glucose tolerance test: significant reduction
  glucose disposal following glucose challenge: significantly improved
[2]; mice
  tissue penetrance in vivo: high
CDK2/cyclinE
  Activity (% of control): 101 % of control
PI 3-kinaseβ
  Activity (% of control): 81 % of control
JNK1α1
  Activity (% of control): 114 % of control
PI 3-kinaseδ
  Activity (% of control): 89 % of control
CDK9/cyclinT1
  Activity (% of control): 100 % of control
CDK6/cyclinD3
  Activity (% of control): 112 % of control
MAPK1
  Activity (% of control): 104 % of control
CDK7/cyclinH
  Activity (% of control): 100 % of control
MAPK2
  Activity (% of control): 105 % of control
CDK1/cyclinB
  Activity (% of control): 88 % of control
JNK2α2
  Activity (% of control): 100 % of control
PKCζ
  Activity (% of control): 98 % of control
CK1
  Activity (% of control): 106 % of control
CDK5/p35
  Activity (% of control): 92 % of control
CDK5/p25
  Activity (% of control): 98 % of control
eEF-2K
  Activity (% of control): 101 % of control
CDK3/cyclinE
  Activity (% of control): 103 % of control
CK2
  Activity (% of control): 99 % of control
CDK2/cyclinA
  Activity (% of control): 87 % of control
PI 3-kinaseγ
  Activity (% of control): 96 % of control
